Patent US9328374B2, “Selective culture medium and method for detecting carbapenem-resistant bacteria in a test sample” (Institut National de la Sante et de la Recherche Medicale …, priority 2011, dated 2016)

System: K. pneumoniae
Assay: MIC of imipenem, ertapenem and meropenem
Type: cell-based, Klebsiella pneumoniae

C[C@@H](O)[C@H]1C(=O)N2C(C(=O)O)=C(S[C@@H]3CN[C@H](C(=O)N(C)C)C3)[C@H](C)[C@H]12 [MEM, meropenem]
MIC (K. pneumoniae HOL (OXA-181 + CTX-M-15)): 1 µg/mL
MIC (K. pneumoniae HOL, OXA-181 + CTX-M-15): 1 µg/mL
MIC (K. pneumoniae HPA, OXA-48 + TEM-1 + CTX-M-15 + OXA-1): 12 µg/mL
MIC (K. pneumoniae IND (NDM-1 + OXA-1 + CTX-M-15)): 4 µg/mL
MIC (K. pneumoniae KAM, KPC-3 + TEM-1 + SHV-11): 2 µg/mL
MIC (K. pneumoniae KDH (DHA-2)): 0.12 µg/mL
MIC (K. pneumoniae KDH, DHA-2, non-carbapenemase producer, overexpressed AmpC): 0.12 µg/mL
MIC (K. pneumoniae KI2, NDM-1 + CTX-M-15 + OXA-1): 4 µg/mL
MIC (K. pneumoniae KIE, NDM-1 + SHV-38 + CMY-16 + OXA-10): 1 µg/mL
MIC (K. pneumoniae KPN (CTX-M-15)): 0.12 µg/mL
MIC (K. pneumoniae KPN, CTX-M-15, non-carbapenemase producer): 0.012 µg/mL
MIC (K. pneumoniae LEG (CTX-M-15 + TEM-1 + SHV-12)): 3 µg/mL
MIC (K. pneumoniae LEG, CTX-M-15 + TEM-1 + SHV-12, non-carbapenemase producer, porin deficiency): 3 µg/mL
MIC (K. pneumoniae LIB (OXA-48)): >32 µg/mL
MIC (K. pneumoniae LIB, OXA-48): 16 µg/mL
MIC (K. pneumoniae LIE, KPC-2 + TEM-2 + OXA-9): >32 µg/mL
MIC (K. pneumoniae LOU, OXA-48): 0.5 µg/mL
MIC (K. pneumoniae MAD (VIM-1 + CTX-M-3)): 1 µg/mL
MIC (K. pneumoniae MAD, VIM-1+ CTX-M-3): 1 µg/mL
MIC (K. pneumoniae MEK (CTX-M-15 + SHV-11)): 6 µg/mL
MIC (K. pneumoniae MEK, CTX-M-15 + SHV-11, non-carbapenemase producer, porin deficiency): 6 µg/mL
MIC (K. pneumoniae MUS (KPC-2 + TEM-1 + SHV-11 + SHV-12)): 1.5 µg/mL
MIC (K. pneumoniae MUS, KPC-2 + TEM-1 + SHV-11 + SHV-12): 1.5 µg/mL
MIC (K. pneumoniae OM2 (NDM-1 + TEM-1 + CTX-M-3 + SHV-11 + OXA-1)): 1.5 µg/mL
MIC (K. pneumoniae OM2, NDM-1 + TEM-1 + CTX-M-3 + SHV-11 + OXA-1): 1.5 µg/mL
MIC (K. pneumoniae OM4, NDM-1 + TEM-1 + CTX-M-15 + SHV-12 + OXA-9): 16 µg/mL
MIC (K. pneumoniae OM8, NDM-1 + TEM-1 + CTX-M-15 + SHV-11 + OXA-1): 4 µg/mL
MIC (K. pneumoniae OM11, OXA-48 + TEM-1 + CTX-M-14): 0.25 µg/mL
MIC (K. pneumoniae OM13, NDM-1 + TEM-1 + CTX-M-15 + SHV-28 + OXA-1 + OXA-9): 2 µg/mL
MIC (K. pneumoniae OM14, OXA-48 + TEM-1): 0.38 µg/mL
MIC (K. pneumoniae OM15, NDM-1 + CTX-M-15 + SHV-130 + OXA-1): 3 µg/mL
MIC (K. pneumoniae OM16, NDM-1 + CTX-M-15 + OXA-1 + OXA-181): 16 µg/mL
MIC (K. pneumoniae OM19, NDM-1 + CTX-M-15 + SHV-12 + OXA-1): 8 µg/mL
MIC (K. pneumoniae OMA419 (NDM-1 + OXA-1)): 2 µg/mL
MIC (K. pneumoniae OMA419, NDM-1 + OXA-1): 2 µg/mL
MIC (K. pneumoniae OMA601, NDM-1 + CTX-M-15 + OXA-1 + OXA-9): >32 µg/mL
MIC (K. pneumoniae OMA (OXA-181 + CTX-M-15 + OXA-1)): 0.5 µg/mL
MIC (K. pneumoniae OMA, OXA-181 + CTXM-15 + OXA-1): 0.5 µg/mL
MIC (K. pneumoniae RAM (OXA-48)): 1 µg/mL
MIC (K. pneumoniae RAM, OXA-48): 1 µg/mL
MIC (K. pneumoniae ROB (OXA-48 + CTX-M-15 + TEM-1)): 0.5 µg/mL
MIC (K. pneumoniae ROU (OXA-48 + CTX-M-15)): 0.25 µg/mL
MIC (K. pneumoniae ROU, OXA-48 + CTX-M-15): 0.25 µg/mL
MIC (K. pneumoniae SCO (OXA-48)): 0.25 µg/mL
MIC (K. pneumoniae SCO, OXA-48): 0.25 µg/mL
MIC (K. pneumoniae SHI (CTX-M-15 + TEM-1 + SHV-1)): 1 µg/mL
MIC (K. pneumoniae SHI, CTX-M-15 + TEM-1 + SHV-11, non-carbapenemase producer, porin deficiency): 1 µg/mL
MIC (K. pneumoniae SHM (CTX-M-15 + TEM-1 + SHV-11)): 1 µg/mL
MIC (K. pneumoniae SHM, CTX-M-15 + TEM-1 + SHV-11, non-carbapenemase producer, porin deficiency): 3 µg/mL
MIC (K. pneumoniae SIC (OXA-48 + CTX-M-15 + SHV-28)): 0.25 µg/mL
MIC (K. pneumoniae SIC, OXA-48 + CTX-M-15 + SHV-28): 0.25 µg/mL
MIC (K. pneumoniae SIM (CTX-M-15 + TEM-1 + SHV-1)): 6 µg/mL
MIC (K. pneumoniae SIM, CTX-M-15 + TEM-1 + SHV-1, non-carbapenemase producer, porin deficiency): 6 µg/mL
MIC (K. pneumoniae TAW, IMP-8 + SHV-12): 0.5 µg/mL
MIC (K. pneumoniae TIK, OXA-48): 0.38 µg/mL
MIC (K. pneumoniae TUR (IMP-1)): 8 µg/mL
MIC (K. pneumoniae TUR, IMP-1): 8 µg/mL
MIC (K. pneumoniae TWA, IMP-8): 0.5 µg/mL
MIC (K. pneumoniae UK (NDM-1 + CTX-M-15 + CMY-4 + OXA-1)): >32 µg/mL
MIC (K. pneumoniae UK, NDM-1 + CTX-M-15 + CMY-4 + OXA-1): >32 µg/mL
MIC (K. pneumoniae VER, OXA-48 + TEM-1 + CTX-M-15 + SHV-11): 0.38 µg/mL
MIC (K. pneumoniae VSG (OXA-48 + TEM-1 + CTX-M-15 + OXA-1)): 0.75 µg/mL
MIC (K. pneumoniae VSG, OXA-48 + TEM-1 + CTX-M-15 + OXA-1): 0.75 µg/mL
MIC (K. pneumoniae YC, KPC-2 + TEM-1 + SHV-11 + SHV-12 + OXA-9): 2 µg/mL
MIC (strain K. pneumoniae 7725, SHV-1, non-carbapenemase producer): 0.032 µg/mL
MIC (strain K. pneumoniae 648236, SHV-2a, non-carbapenemase producer): 0.38 µg/mL
MIC (strain K. pneumoniae ALE, CTX-M-15 + SHV-1, non-carbapenemase producer): 4 µg/mL
MIC (strain K. pneumoniae AMS, OXA-48 + TEM-1 + CTX-M-15 + OXA-1): 0.38 µg/mL
MIC (strain K. pneumoniae BAJ, OXA-48 + TEM-1 + CTX-M-15 + SHV-28): 0.38 µg/mL
MIC (strain K. pneumoniae BED, CTX-M-15 + TEM-1 + SHV-11, non-carbapenemase producer): 4 µg/mL
MIC (strain K. pneumoniae BEL, OXA-48): 1 µg/mL
MIC (strain K. pneumoniae BEN, OXA-48 + TEM-1 + CTX-M-15 + SHV-28): 0.25 µg/mL
MIC (strain K. pneumoniae BER, SHV-28 + TEM-1, non-carbapenemase producer): 1 µg/mL
MIC (strain K. pneumoniae ELK, OXA-48 + TEM-1 + CTX-M-15 + SHV-11): 0.38 µg/mL
MIC (strain K. pneumoniae HOL, OXA-181 + CTX-M-15): 1 µg/mL
MIC (strain K. pneumoniae MUS, KPC-2 + TEM-1 + SHV-11 + SHV-12): 1.5 µg/mL
MIC (strain K. pneumoniae OM2, NDM-1 + TEM-1 + CTX-M-3 + SHV-11 + OXA-1): 1.5 µg/mL
MIC (strain K. pneumoniae OMA419, NDM-1 + OXA-1): 2 µg/mL
MIC (strain K. pneumoniae OMA, OXA-181 + CTXM-15 + OXA-1): 0.5 µg/mL
MIC (strain K. pneumoniae ROU, OXA-48 + CTX-M-15): 0.25 µg/mL
MIC (strain K. pneumoniae SCO, OXA-48): 0.25 µg/mL
MIC (strain K. pneumoniae SIC, OXA-48 + CTX-M-15 + SHV-28): 0.25 µg/mL
MIC (strain K. pneumoniae VSG, OXA-48 + TEM-1 + CTX-M-15 + OXA-1): 0.75 µg/mL
